Consider seven compounds from the supplement of paper PMC11061612.

Assay [1] has as its system HARA (Squamous Cell Lung Carcinoma). As to the kind of experiment: combination Emax (second highest fraction inhibited in the dose matrix, 72 h); higher = more inhibition; extreme values may be limits of the assay. The procedure, abridged:
(§1)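 After 24 hours at 37°C and 5% CO2 in 1536-well plates, cells in DMEM/F12 or RPMI plus 10% FBS received two-drug dose matrices for 72 hours. Viability came from CellTiter-Glo 2.0 luminescence and was scaled as inhibition, anchored at 0 by vehicle wells and at 1 by blank wells. Combination Emax is taken as the second-highest inhibition in the matrix, and Bliss excess as the observed combination effect less EA + EB − EA·EB, with EA and EB the single-agent effects.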

A further assay concerns NCI-H28 (Mesothelioma). The assay is described as above. Summed up:
as §1

Assay [2] concerns LoVo (Colorectal Carcinoma). The description is as above. The procedure, abridged:
as §1

Assay [3] deals with OC-314 (Ovarian Carcinoma). The description is as above. Summed up: as §1
Assay [4] relates to HO-1-u-1 (Oral Cavity Carcinoma). As to the kind of experiment: Bliss excess, mean over the matrix (fraction); higher = more synergy. Summed up:
as §1

For assay [5], the system named is LB771-HNC (Head and Neck Carcinoma). The description is as above. The procedure, abridged:
as §1

The test system of assay [6] is RKO (Colorectal Carcinoma). The description is as above. The procedure, abridged:
as §1

In assay [7] the test system is OVCAR-8 (Ovarian Carcinoma). The assay is described as above. Summed up: as §1
For assay [8], the system named is RT-112 (Bladder Carcinoma). The description is as above. The procedure, abridged: as §1
Assay [9] relates to HARA (Squamous Cell Lung Carcinoma). The description is as above. The procedure, abridged:
as §1

In assay [10] the test system is 8305C (Thyroid Gland Carcinoma). The description is as above. Summed up:
as §1

Assay [11] concerns CTB-1 (B-Cell Non-Hodgkin's Lymphoma). The description is as above. The procedure, abridged: as §1
Assay [12] relates to 639-V (Bladder Carcinoma). Described as above. The procedure, abridged: as §1
Another assay has as its system COLO-829 (Melanoma). Described as above. Summed up: as §1
Assay [13] relates to LoVo (Colorectal Carcinoma). The assay is described as above. The procedure, abridged:
as §1

For assay [14], the system named is EN (Endometrial Carcinoma). The assay is described as above. Summed up: as §1
The subject of another assay is Mewo (Melanoma). The description is as above. The procedure, abridged: as §1
The test system of assay [15] is KARPAS-231 (B-Cell Non-Hodgkin's Lymphoma). Described as above. Summed up:
as §1

Assay [16] has as its system NCI-H69 (Small Cell Lung Carcinoma). Described as above. Summed up: as §1
For assay [17], the system named is SU-DHL-6 (B-Cell Non-Hodgkin's Lymphoma). The description is as above. Summed up: as §1
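Wherever Bliss excess, mean over the matrix is given: after 72 h of two-drug dosing.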

Turning to `CN(CCO)CC[C@H](CSc1ccccc1)Nc1ccc(S(=O)(=O)NC(=O)c2ccc(N3CCC([C@@H](O)c4ccccc4-c4ccc(Cl)cc4)CC3)cc2)cc1S(=O)(=O)C(F)(F)F` [AZD4320] + CN(C)CCCOc1ccc(-c2ccc3ncc4c(c3c2)n(C2CCOCC2)c(=O)n4C)cn1 [AZD0156] (first compound max 1 µM, 7x7, partner max 1 µM), the “combination Emax” value was found to be 0.187 in assay [1], 0.163 in the assay with NCI-H28 (Mesothelioma), 0.287 in [2] and 0.165 in assay [3]. The Bliss excess is 0.0032 in assay [4]; -0.0454 in assay [5]; -0.0253 in [6]; -0.0434 in [7]; -0.0274 in assay [8]; 0.0007 in assay [9]. Further, the Bliss excess in [10] is -0.0489; in assay [11] it was -0.0376; in assay [12], -0.0209; in the assay with COLO-829 (Melanoma), -0.0481; in assay [13], -0.0622; in assay [14] it was -0.0085. The Bliss excess in the assay on Mewo (Melanoma) is -0.0466; in assay [15], 0.0325; in assay [16], -0.0465.
Consider `Cc1c2c(nn1C)CSCc1cc(n(C)n1)CSc1cc(c3ccccc3c1)OCCCc1c(C(=O)O)n(C)c3c-2c(Cl)ccc13` [AZD5991] + Cn1cnc2c(F)c(Nc3ccc(Br)cc3Cl)c(C(=O)NOCCO)cc21 [Selumetinib] (first compound max 1 µM, 7x7, partner max 3 µM), for which the “combination Emax” value came to 0.223 in assay [1], 0.316 with NCI-H28 (Mesothelioma), 0.565 in assay [2] and 0.245 in assay [3]. Moreover, the Bliss excess is 0.0168 in assay [4]; -0.0118 in assay [5]; 0.0143 in [6]; 0.0416 in assay [7]; 0.102 in assay [8]; 0.0071 in [17]. Besides, the Bliss excess is -0.0263 in assay [9]; -0.0511 in assay [10]; -0.02 in assay [11]; 0.0247 in assay [12]; 0.0295 in the assay on COLO-829 (Melanoma); 0.0074 in assay [13]. Also, the Bliss excess in [14] is -0.0494; with Mewo (Melanoma) it was -0.0417; in [15], -0.0645; in [16], -0.065.
For `CN(C)CCCOc1ccc(-c2ccc3ncc4c(c3c2)n(C2CCOCC2)c(=O)n4C)cn1` [AZD0156] + C=CCn1c(=O)c2cnc(Nc3ccc(N4CCN(C)CC4)cc3)nc2n1-c1cccc(C(C)(C)O)n1 [AZD1775] (first compound max 1 µM, partner max 1 µM), the “combination Emax” value in assay [1] amounted to 0.809; in the assay on NCI-H28 (Mesothelioma) it was 0.434; in assay [2] it was 0.785; in assay [3] it was 0.515. In addition, the Bliss excess was 0.0563 in assay [4]; -0.0593 in [5]; -0.0252 in assay [6]; -0.0053 in assay [7]; -0.0193 in [8]; -0.0384 in [17]. In addition, the Bliss excess was -0.007 in [9]; 0.012 in assay [10]; 0.0101 in [11]; -0.0232 in assay [12]; -0.0486 in the assay with COLO-829 (Melanoma); -0.0533 in [13]. For the same compound, the Bliss excess in assay [14] is -0.0767; in the assay on Mewo (Melanoma), -0.05; in assay [15], 0.0355; in [16], -0.129.
Consider `Cc1c2c(nn1C)CSCc1cc(n(C)n1)CSc1cc(c3ccccc3c1)OCCCc1c(C(=O)O)n(C)c3c-2c(Cl)ccc13` [AZD5991] + C=CCn1c(=O)c2cnc(Nc3ccc(N4CCN(C)CC4)cc3)nc2n1-c1cccc(C(C)(C)O)n1 [AZD1775] (first compound max 1 µM, partner max 1 µM), for which the “combination Emax” value in [1] was found to be 0.89; in the assay on NCI-H28 (Mesothelioma), 0.416; in assay [2], 0.856; in assay [3], 0.554. Moreover, the Bliss excess in assay [4] was 0.0396; in [5] it was 0.0271; in [6] it was -0.0002; in assay [7], -0.0075; in [8] it was 0.0566; in assay [17], -0.0152. The Bliss excess is 0.0014 in assay [9]; -0.0065 in assay [10]; -0.0417 in assay [11]; 0.0854 in assay [12]; -0.0169 with COLO-829 (Melanoma); -0.064 in assay [13]. Moreover, the Bliss excess in [14] is -0.0038; with Mewo (Melanoma), -0.0347; in [15], 0.0195; in assay [16], -0.116.
For the compound `Cc1c2c(nn1C)CSCc1cc(n(C)n1)CSc1cc(c3ccccc3c1)OCCCc1c(C(=O)O)n(C)c3c-2c(Cl)ccc13` [AZD5991] + C1CN(CCC1(C(=O)N[C@@H](CCO)C2=CC=C(C=C2)Cl)N)C3=NC=NC4=C3C=CN4 [Capivasertib] (first compound max 1 µM, 7x7, partner max 3 µM), the “combination Emax” value in assay [1] was 0.58; in [2], 0.625; in assay [3] it was 0.297. The Bliss excess in assay [4] is 0.0242; in assay [5], 0.0612; in assay [6], 0.0296; in assay [7] it was 0; in assay [8] it was 0.0563; in assay [17], -0.0035. Further, the Bliss excess is -0.0041 in assay [9]; 0.0008 in assay [10]; -0.0048 in [11]; -0.0036 in assay [12]; -0.0212 in the assay with COLO-829 (Melanoma); -0.069 in [13]. In addition, the Bliss excess in [14] was -0.0547; in the assay with Mewo (Melanoma) it was -0.0536; in assay [15] it was -0.0402; in assay [16] it was -0.026.
With `CN(C)CCCOc1ccc(-c2ccc3ncc4c(c3c2)n(C2CCOCC2)c(=O)n4C)cn1` [AZD0156] + CCN(CCO)CCCOc1ccc2c(Nc3cc(CC(=O)Nc4cccc(F)c4)[nH]n3)ncnc2c1 [AZD2811] (first compound max 1 µM, 7x7, partner max 1 µM), the “combination Emax” value in assay [1] worked out at 0.289; with NCI-H28 (Mesothelioma), 0.149; in assay [2], 0.435; in assay [3], 0.312. In addition, the Bliss excess is 0.0299 in assay [4]; -0.0498 in assay [5]; 0.014 in [6]; 0.0425 in assay [7]; -0.0098 in assay [8]; -0.0026 in assay [17]. In addition, the Bliss excess is 0.0136 in assay [9]; -0.0794 in assay [10]; 0.002 in assay [11]; 0.0064 in assay [12]; -0.0587 in the assay with COLO-829 (Melanoma); 0.0047 in [13]. For the same compound, the Bliss excess in [14] is 0.0456; in the assay on Mewo (Melanoma), -0.0477; in assay [15], -0.0205; in assay [16] it was 0.0012.
Consider `CC1(C)CCC(CN2CCN(c3ccc(C(=O)NS(=O)(=O)c4ccc(NCC5CCOCC5)c([N+](=O)[O-])c4)c(Oc4cnc5[nH]ccc5c4)c3)CC2)=C(c2ccc(Cl)cc2)C1` [Venetoclax] + Cc1cc2ncnn2cc1Nc1ncc2c(n1)n(C1CCOCC1)c(=O)n2C [AZD7648] (first compound max 1 µM, 7x7, partner max 10 µM), for which the “combination Emax” value was found to be 0.572 in [1], 0.216 in the assay on NCI-H28 (Mesothelioma), 0.443 in [2] and 0.251 in assay [3]. Besides, the Bliss excess was -0.0307 in assay [4]; -0.006 in assay [5]; -0.0396 in assay [6]; -0.0014 in assay [7]; 0.0066 in [8]; 0.049 in assay [17]. Also, the Bliss excess in [9] is -0.03; in assay [10], -0.0293; in assay [11], -0.0638; in assay [12], -0.0501; with COLO-829 (Melanoma), -0.0367; in [13], -0.0526. The Bliss excess was -0.0233 in assay [14], -0.0181 in the assay with Mewo (Melanoma), -0.124 in assay [15] and -0.0227 in [16].
